Data from the supplement of paper PMC10307832.

Assays:
Assay in all cases: relative viability (nuclei count vs DMSO), 5 days (fraction); higher = more cells survive
[1] = compound: O[C@H]1CC[C@H](Nc2ncc3nc(Nc4c(F)cc(F)cc4F)n([C@H]4CCOC4)c3n2)CC1 [Tanzisertib] + COc1cc2c(Oc3ccc(NC(=O)C4(C(=O)Nc5ccc(F)cc5)CC4)cc3F)ccnc2cc1OCCCN1CCOCC1 [Foretinib] (partner 0.25 µM)
In short: (§1)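 After 5 days of treatment, lung cancer cells in 1536-well plates were fixed and stained in a single step (final 0.05% Triton X-100, 1% formaldehyde, 1 ug/ml Hoechst) and their nuclei counted on 4× images. Treatment had been applied by pin tool the day after seeding as one drug alone or as a fixed anchor-drug dose with five library-drug doses (not always all listed) in √10 steps. Relative viability is the nuclei count of treated wells divided by that of vehicle wells, and values are medians of duplicate plates.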

[2] = compound: C1CNCCC1C2=CC(=NN2)C3=CC=NC=C3 + C[C@]1(O)C[C@@H](c2nc(-c3ccc4ccc(-c5ccccc5)nc4c3)c3c(N)nccn32)C1 [Linsitinib] (partner 1 µM)
In short: as §1

[3] = compound: C[C@@H](N)c1ccc(C(=O)Nc2ccnc3[nH]ccc23)cc1 + CC1(C)CCC(c2ccc(Cl)cc2)=C(CN2CCN(c3ccc(C(=O)NS(=O)(=O)c4ccc(N[C@H](CCN5CCOCC5)CSc5ccccc5)c(S(=O)(=O)C(F)(F)F)c4)cc3)CC2)C1 [Navitoclax] (partner 0.5 µM)
In short: as §1

[4] = compound: O[C@H]1CC[C@H](Nc2ncc3nc(Nc4c(F)cc(F)cc4F)n([C@H]4CCOC4)c3n2)CC1 [Tanzisertib] + Cc1nc(NC(=O)N2CCC[C@H]2C(N)=O)sc1-c1ccnc(C(C)(C)C(F)(F)F)c1 [Alpelisib] (partner 2 µM)
In short: as §1

Cell Line | relative viability ([1]; first compound 0.08 µM) | relative viability ([1]; first compound 0.253 µM) | relative viability ([1]; first compound 0.8 µM) | relative viability ([1]; first compound 2.53 µM) | relative viability ([1]; first compound 8 µM) | relative viability ([2]; first compound 0.08 µM) | relative viability ([2]; first compound 0.8 µM) | relative viability ([2]; first compound 2.53 µM) | relative viability ([2]; first compound 8 µM) | relative viability ([3]; first compound 0.04 µM) | relative viability ([3]; first compound 0.1265 µM) | relative viability ([3]; first compound 0.4 µM) | relative viability ([3]; first compound 1.265 µM) | relative viability ([3]; first compound 4 µM) | relative viability ([4]; first compound 0.08 µM) | relative viability ([4]; first compound 0.253 µM) | relative viability ([4]; first compound 0.8 µM) | relative viability ([4]; first compound 2.53 µM) | relative viability ([4]; first compound 8 µM)
NCI-H1299 | 1.08 | 1.1 | 1.09 | 1.15 | 1.23 | 0.987 | 1.14 | 1.05 | 0.924 | 1.06 | 0.988 | 0.983 | 0.973 | 0.932 | 1.07 | 1.05 | 1.08 | 1.01 | 1.14
NCI-H1734 | 0.923 | 0.781 | 0.845 | 0.87 | 0.789 | 0.845 | 0.885 | 0.908 | 0.811 | 0.943 | 0.82 | 0.81 |  | 0.443 | 0.724 | 0.704 | 0.673 | 0.702 | 0.642
NCI-H1993 | 0.823 | 0.841 | 0.844 | 0.786 | 0.73 | 0.748 | 0.67 | 0.732 | 0.798 | 0.904 | 1.01 |  | 0.901 | 0.947 | 0.661 | 0.663 | 0.524 | 0.693 | 0.699
LK-2 | 1.26 | 1.01 | 1.11 | 1.03 | 1.46 |  | 0.751 | 0.427 | 0.519 | 0.976 | 1.18 | 0.927 | 0.82 | 0.762 | 1.12 | 0.946 | 1.16 | 1.07 | 1.12
HCC-78 | 0.545 | 0.614 | 0.584 | 0.583 | 0.585 | 0.446 |  | 0.513 | 0.61 | 1.08 | 0.79 | 1.2 | 1.11 | 0.782 | 0.322 | 0.304 | 0.309 | 0.372 | 0.34
NCI-H2405 | 1.1 | 1.08 | 1.07 | 1.17 | 1.03 | 0.979 | 0.771 | 1.07 | 0.913 |  | 0.799 | 0.513 | 0.41 | 0.279 | 0.933 | 0.696 | 0.805 | 0.83 | 0.547
HOP-62 | 0.99 | 1.07 | 0.986 | 1.22 | 1.32 | 0.892 | 1.12 | 1.19 | 1.08 | 1.08 | 0.959 | 1.06 |  | 0.85 | 0.956 | 1.1 | 1.02 | 1.11 | 1.16
BEN | 0.619 | 0.75 | 0.679 | 0.766 | 0.828 | 0.689 | 0.984 | 0.921 | 0.913 | 0.0518 | 0.0703 | 0.0684 | 0.0653 | 0.122 | 0.978 | 1.04 | 1.08 | 0.955 | 1.01
